Test results reported in the NIST ThermoML archive (doi:10.1021/je500380x).
± gives the expanded uncertainty stated by the source.

Test: mn = molality of the nth substance listed, in mol/kg
Conditions: 100 kPa, Liquid; for viscosity: Falling or rolling sphere viscometry; for mass density: Vibrating tube method; for electrical conductivity: Alternating current cell with electrodes

CCC(=O)OCCN1CCNCC1 [2-(piperazin-1-yl)ethyl propionate] + CO
Conditions | electrical conductivity [S/m] | mass density [kg/m3] | viscosity [mPa·s]
308.15 K, m1 = 0.05 | – | 780.29 ± 0.16 | –
308.15 K, m1 = 0.1001 | – | 783.39 ± 0.15 | –
308.15 K, m1 = 0.2006 | – | 789.53 ± 0.15 | –
308.15 K, m1 = 0.3003 | – | 795.62 ± 0.15 | –
308.15 K, m1 = 0.3995 | – | 801.72 ± 0.15 | –
308.15 K, m1 = 0.5005 | – | 807.84 ± 0.15 | –
308.15 K, m1 = 0.6006 | – | 814.12 ± 0.15 | –
308.15 K, m1 = 0.7007 | – | 820.37 ± 0.15 | –
308.15 K, m1 = 0.8007 | – | 826.54 ± 0.14 | –
308.15 K, m1 = 0.9008 | – | 832.74 ± 0.14 | –
308.15 K, m1 = 1.001 | – | 838.83 ± 0.14 | 0.949 ± 0.012
308.15 K, m1 = 1.2 | – | 851.28 ± 0.14 | 1.098 ± 0.014
308.15 K, m1 = 1.401 | – | 864.42 ± 0.14 | 1.305 ± 0.016
308.15 K, m1 = 1.6 | – | 876.97 ± 0.13 | 1.56 ± 0.019
308.15 K, m1 = 1.801 | – | 890.31 ± 0.13 | 1.895 ± 0.023
308.15 K, m1 = 2 | – | 903.56 ± 0.13 | 2.346 ± 0.029
308.15 K, m1 = 2.203 | – | 917.48 ± 0.12 | 2.912 ± 0.036
308.15 K, m1 = 2.403 | – | 930.52 ± 0.12 | 3.753 ± 0.046
308.15 K, m1 = 2.603 | – | 943.48 ± 0.12 | 4.841 ± 0.06
308.15 K, m1 = 2.803 | – | 956.73 ± 0.12 | 6.372 ± 0.079
308.15 K, m1 = 3.001 | – | 970.42 ± 0.12 | 8.863 ± 0.11
313.15 K, m1 = 0.05 | 0.142 ± 0.0015 | 775.51 ± 0.16 | 0.484 ± 0.006
313.15 K, m1 = 0.1001 | 0.238 ± 0.002 | 778.61 ± 0.16 | 0.494 ± 0.006
313.15 K, m1 = 0.2006 | 0.384 ± 0.004 | 784.77 ± 0.15 | 0.522 ± 0.007
313.15 K, m1 = 0.3003 | 0.498 ± 0.005 | 790.88 ± 0.15 | 0.552 ± 0.007
313.15 K, m1 = 0.3995 | 0.586 ± 0.006 | 797 ± 0.15 | 0.585 ± 0.007
313.15 K, m1 = 0.5005 | 0.661 ± 0.007 | 803.15 ± 0.15 | 0.623 ± 0.008
313.15 K, m1 = 0.6006 | 0.729 ± 0.007 | 809.45 ± 0.15 | 0.664 ± 0.008
313.15 K, m1 = 0.7007 | 0.779 ± 0.008 | 815.73 ± 0.15 | 0.706 ± 0.009
313.15 K, m1 = 0.8007 | 0.823 ± 0.008 | 821.92 ± 0.15 | 0.76 ± 0.009
313.15 K, m1 = 0.9008 | 0.857 ± 0.009 | 828.14 ± 0.14 | 0.815 ± 0.01
313.15 K, m1 = 1.001 | 0.898 ± 0.009 | 834.22 ± 0.14 | 0.878 ± 0.011
313.15 K, m1 = 1.2 | 0.931 ± 0.009 | 846.77 ± 0.14 | 1.012 ± 0.013
313.15 K, m1 = 1.401 | 0.948 ± 0.009 | 859.97 ± 0.14 | 1.197 ± 0.015
313.15 K, m1 = 1.6 | 0.941 ± 0.009 | 872.59 ± 0.13 | 1.425 ± 0.018
313.15 K, m1 = 1.801 | 0.918 ± 0.009 | 885.98 ± 0.13 | 1.723 ± 0.021
313.15 K, m1 = 2 | 0.873 ± 0.009 | 899.28 ± 0.13 | 2.12 ± 0.026
313.15 K, m1 = 2.203 | 0.82 ± 0.008 | 913.27 ± 0.13 | 2.614 ± 0.032
313.15 K, m1 = 2.403 | 0.751 ± 0.008 | 926.52 ± 0.12 | 3.343 ± 0.041
313.15 K, m1 = 2.603 | 0.674 ± 0.007 | 939.34 ± 0.12 | 4.274 ± 0.053
313.15 K, m1 = 2.803 | 0.599 ± 0.006 | 952.7 ± 0.12 | 5.571 ± 0.069
313.15 K, m1 = 3.001 | – | 966.46 ± 0.12 | 7.662 ± 0.095
313.15 K, m1 = 3.006 | 0.534 ± 0.005 | – | –
318.15 K, m1 = 0.05 | 0.145 ± 0.0015 | 770.7 ± 0.16 | 0.459 ± 0.006
318.15 K, m1 = 0.1001 | 0.243 ± 0.003 | 773.8 ± 0.16 | 0.468 ± 0.006
318.15 K, m1 = 0.2006 | 0.395 ± 0.004 | 779.98 ± 0.16 | 0.493 ± 0.006
318.15 K, m1 = 0.3003 | 0.511 ± 0.005 | 786.11 ± 0.15 | 0.521 ± 0.006
318.15 K, m1 = 0.3995 | 0.604 ± 0.006 | 792.25 ± 0.15 | 0.55 ± 0.007
318.15 K, m1 = 0.5005 | 0.685 ± 0.007 | 798.42 ± 0.15 | 0.584 ± 0.007
318.15 K, m1 = 0.6006 | 0.754 ± 0.008 | 804.74 ± 0.15 | 0.622 ± 0.008
318.15 K, m1 = 0.7007 | 0.806 ± 0.008 | 811.06 ± 0.15 | 0.66 ± 0.008
318.15 K, m1 = 0.8007 | 0.855 ± 0.009 | 817.27 ± 0.15 | 0.708 ± 0.009
318.15 K, m1 = 0.9008 | 0.891 ± 0.009 | 823.51 ± 0.14 | 0.759 ± 0.009
318.15 K, m1 = 1.001 | 0.936 ± 0.009 | 829.66 ± 0.14 | 0.814 ± 0.01
318.15 K, m1 = 1.2 | 0.975 ± 0.01 | 842.24 ± 0.14 | 0.935 ± 0.012
318.15 K, m1 = 1.401 | 0.994 ± 0.01 | 855.48 ± 0.14 | 1.102 ± 0.014
318.15 K, m1 = 1.6 | 0.995 ± 0.01 | 868.17 ± 0.13 | 1.306 ± 0.016
318.15 K, m1 = 1.801 | 0.971 ± 0.01 | 881.62 ± 0.13 | 1.571 ± 0.019
318.15 K, m1 = 2 | 0.932 ± 0.009 | 894.99 ± 0.13 | 1.922 ± 0.024
318.15 K, m1 = 2.203 | 0.874 ± 0.009 | 909.04 ± 0.13 | 2.355 ± 0.029
318.15 K, m1 = 2.403 | 0.809 ± 0.008 | 922.36 ± 0.12 | 2.99 ± 0.037
318.15 K, m1 = 2.603 | 0.724 ± 0.007 | 935.25 ± 0.12 | 3.793 ± 0.047
318.15 K, m1 = 2.803 | 0.656 ± 0.007 | 948.64 ± 0.12 | 4.897 ± 0.061
318.15 K, m1 = 3.001 | – | 962.47 ± 0.12 | 6.668 ± 0.082
318.15 K, m1 = 3.006 | 0.583 ± 0.006 | – | –
323.15 K, m1 = 0.05 | 0.148 ± 0.0015 | 765.85 ± 0.16 | 0.437 ± 0.005
323.15 K, m1 = 0.1001 | 0.244 ± 0.003 | 768.95 ± 0.16 | 0.445 ± 0.006
323.15 K, m1 = 0.2006 | 0.406 ± 0.004 | 775.15 ± 0.16 | 0.467 ± 0.006
323.15 K, m1 = 0.3003 | 0.529 ± 0.005 | 781.29 ± 0.16 | 0.492 ± 0.006
323.15 K, m1 = 0.3995 | 0.625 ± 0.006 | 787.45 ± 0.15 | 0.519 ± 0.006
323.15 K, m1 = 0.5005 | 0.709 ± 0.007 | 793.64 ± 0.15 | 0.549 ± 0.007
323.15 K, m1 = 0.6006 | 0.782 ± 0.008 | 799.99 ± 0.15 | 0.583 ± 0.007
323.15 K, m1 = 0.7007 | 0.833 ± 0.008 | 806.34 ± 0.15 | 0.617 ± 0.008
323.15 K, m1 = 0.8007 | 0.889 ± 0.009 | 812.57 ± 0.15 | 0.661 ± 0.008
323.15 K, m1 = 0.9008 | 0.927 ± 0.009 | 818.85 ± 0.15 | 0.707 ± 0.009
323.15 K, m1 = 1.001 | 0.976 ± 0.01 | 825.02 ± 0.14 | 0.757 ± 0.009
323.15 K, m1 = 1.2 | 1.017 ± 0.01 | 837.66 ± 0.14 | 0.866 ± 0.011
323.15 K, m1 = 1.401 | 1.042 ± 0.01 | 850.96 ± 0.14 | 1.016 ± 0.013
323.15 K, m1 = 1.6 | 1.045 ± 0.01 | 863.7 ± 0.14 | 1.199 ± 0.015
323.15 K, m1 = 1.801 | 1.032 ± 0.01 | 877.22 ± 0.13 | 1.436 ± 0.018
323.15 K, m1 = 2 | 0.996 ± 0.01 | 890.65 ± 0.13 | 1.748 ± 0.022
323.15 K, m1 = 2.203 | 0.933 ± 0.009 | 904.77 ± 0.13 | 2.13 ± 0.026
323.15 K, m1 = 2.403 | 0.866 ± 0.009 | 918.16 ± 0.12 | 2.685 ± 0.033
323.15 K, m1 = 2.603 | 0.781 ± 0.008 | 931.01 ± 0.12 | 3.381 ± 0.042
323.15 K, m1 = 2.803 | 0.708 ± 0.007 | 944.56 ± 0.12 | 4.325 ± 0.053
323.15 K, m1 = 3.001 | – | 958.45 ± 0.12 | 5.906 ± 0.073
323.15 K, m1 = 3.006 | 0.636 ± 0.006 | – | –
